“Also recorded” adds a separate entry of the source.
Key:
[1] = test system: homozygous scn1Lab−/− mutants; experiment: epileptiform activity, open-field recordings in larval forebrain (LFP assay); assay type: in vivo, zebrafish (Danio rerio); conditions: for LFP Assay: Table 1, 25, 59 and 100 μM, oral via embryo medium
[2] = test system: homozygous scn1Lab−/− mutants; experiment: zebrafish locomotor assay (total distance in large movements, lardist); assay type: in vivo, zebrafish (Danio rerio); conditions: scn1Lab−/− mutants; for reduction in seizure behavior: fixed concentration, FIG. 3
From the text: (Baraban et al, 2013). Additional phenotypes of these mutants include: abnormal optokinetic response (OKR; 5 dpf); darkened pigmentation; death by 14 dpf; spontaneous seizure-like activity; abnormal (forebrain electrographic activity (3-7 dpf); seizure activity; lower levels of serotonin in scn1lab^−/− head homogenates at 7 dpf; zebrafish express orthologs of human serotonin (5HT) receptor subtypes at 5 dpf; nighttime hyperactivity (5 dpf); in open field-increased thigmotaxis. decreased movement (at 5 dpf); no differences in GABAergic neurons compared to wild type (5 dpf); 5-HT2a (hitr2aa/b) and S-HT2c; (htr2c11) orthologs expressed in larval heads in wild-type and scn1lab−/− mutants and in adult wild-type brains.
To assay the locomotor activity of homozygous scn1Lab−/− mutants and control WT scn1Lab+/+, zebrafish larvae were placed one larva per well in a 96-well plate in 100 μL of embryo medium from 4 to 8 days post-fertilization (dpf). Each day the larvae are tracked in an automated tracking device (ZebraBox™ apparatus; Viewpoint, Lyon, France) for 10 min after 30 min habituation (100-second integration interval). All recordings were performed at the same time during daytime period. The total distance in large movements was recorded and quantified using ZebraLab™ software (Viewpoint, Lyon, France). Data was pooled together from at least three independent experiments with at least 24 larvae per condition.
Scn1Lab^−/− mutants and WT scn1Lab+/+ larvae are arrayed in the same plate and treated at 6 days post fertilization (dpf) with the test compounds (25 μM), or VHC in individual wells of a 96-well plate. After incubation at 28° C. on a 14/10 hour light/dark cycle and 30-min chamber habituation 6 and 7 dpf larvae are tracked for locomotor activity for 10 min (100-second integration interval) under dark conditions. An incubation time of 1.5 hours is further referred to as short treatment (6 dpf). Furthermore, these larvae are analyzed after more than 22 hours incubation (7 dpf), i.e. long treatment. The total locomotor activity is quantified using the parameter lardist and plotted in cm. Data for each compound is pooled together from multiple independent experiments with at least 9 larvae per treatment condition.

dizocilpine-treated mice [3] = experiment: step-through passive avoidance, dizocilpine-induced amnesia model; assay type: in vivo, Male Swiss OF-1 mice
dizocilpine-treated mice [4] = experiment: spontaneous alternation in the Y-maze, dizocilpine-induced amnesia model; assay type: in vivo, Male Swiss OF-1 mice

## CC(N)Cc1cccc(C(F)(F)F)c1 (single isomer, unassigned; (+)) [(+)-Norfenfluramine]
[1]
  LFP Assay: Less effective than (+)-FFA;
[2]
  antiseizure activity in the zebrafish locomotor assay: more efficacious than (−)-norfenfluramine
  reduction in seizure behavior: 80%

## Dehydroepiandrosterone sulfate [DHEAS]
dizocilpine-treated mice [3]; Table 5 STPA, DHEAS alone 5 mg/kg sc
  PP (%): 19.1 ± 10.7%
dizocilpine-treated mice [3]; Table 5 STPA, DHEAS alone 10 mg/kg sc
  PP (%): 47.2 ± 12.8%
dizocilpine-treated mice [3]; Table 5 STPA, DHEAS alone 20 mg/kg sc
  PP (%): 40.3 ± 13.3^4%
dizocilpine-treated mice [4]; Table 5 YMT, DHEAS alone 5 mg/kg sc
  PP (%): 18.4 ± 9.7%
dizocilpine-treated mice [4]; Table 5 YMT, DHEAS alone 10 mg/kg sc
  PP (%): 29.8 ± 7.4%
dizocilpine-treated mice [4]; Table 5 YMT, DHEAS alone 20 mg/kg sc
  PP (%): 57.9 ± 11.0^1%

## CC(N)Cc1cccc(C(F)(F)F)c1 (single isomer, unassigned; (-)) [(−)-Norfenfluramine]
[1]; 50 micromolar, FIGS. 4 and 5
  anti-epileptiform activity (frequency and cumulative duration of epileptiform events over 10 minutes): less efficacious than (+)- and (−)-fenfluramine; also recorded: comparable
[1]
  LFP Assay: Inactive
[2]
  reduction in seizure behavior: 45%

## Cl.O=C(OCCN1CCOCC1)C1(c2ccccc2)CCCCC1 [PRE-084, 2-(4-Morpholinethyl)-1-phenylcyclohexanecarboxylate hydrochloride]
dizocilpine-treated mice [3]; Table 2 StepThrough/Passive Avoidance, drug alone 0.1 mg/kg IP
  PP (%): 4.9 ± 9.9%
dizocilpine-treated mice [3]; Table 2 StepThrough/Passive Avoidance, drug alone 0.3 mg/kg IP
  PP (%): 34.6 ± 10.5 ^3%
dizocilpine-treated mice [3]; Table 3 StepThrough/PassiveAvoidance, drug alone 0.1 mg/kg IP
  PP (%): 7.6 ± 12.4%
dizocilpine-treated mice [3]; Table 3 StepThrough/PassiveAvoidance, drug alone 0.3 mg/kg IP
  PP (%): 25.2 ± 9.8 ^3%
dizocilpine-treated mice [3]; Table 4 StepThrough/PassiveAvoidance, drug alone 0.1 mg/kg IP
  PP (%): 8.8 ± 11.0%
dizocilpine-treated mice [3]; Table 4 StepThrough/PassiveAvoidance, drug alone 0.3 mg/kg IP
  PP (%): 38.9 ± 10.4 ^3%
dizocilpine-treated mice [4]; Table 2 Y-Maze, drug alone 0.1 mg/kg IP
  PP (%): 6.6 ± 12.8%
dizocilpine-treated mice [4]; Table 2 Y-Maze, drug alone 0.3 mg/kg IP
  PP (%): 40.5 ± 9.2 ^1%
dizocilpine-treated mice [4]; Table 3 Y-Maze, drug alone 0.1 mg/kg IP
  PP (%): 15.4 ± 10.9%
dizocilpine-treated mice [4]; Table 3 Y-Maze, drug alone 0.3 mg/kg IP
  PP (%): 32.6 ± 8.9 ^1%
dizocilpine-treated mice [4]; Table 4 Y Maze, drug alone 0.1 mg/kg IP
  PP (%): 17.2 ± 13.8%
dizocilpine-treated mice [4]; Table 4 Y Maze, drug alone 0.3 mg/kg IP
  PP (%): 27.0 ± 9.5 ^1%

## pregnenolone sulfate [PREGS]
dizocilpine-treated mice [3]; Table 6 STPA, PREGS alone 5 mg/kg sc
  PP (%): 4.4 ± 16.3%
dizocilpine-treated mice [3]; Table 6 STPA, PREGS alone 10 mg/kg sc
  PP (%): 21.0 ± 14.6%
dizocilpine-treated mice [3]; Table 6 STPA, PREGS alone 20 mg/kg sc
  PP (%): 26.0 ± 19.1 ^4%
dizocilpine-treated mice [4]; Table 6 YMT, PREGS alone 5 mg/kg sc
  PP (%): 3.5 ± 17.6%
dizocilpine-treated mice [4]; Table 6 YMT, PREGS alone 10 mg/kg sc
  PP (%): 52.4 ± 12.2%
dizocilpine-treated mice [4]; Table 6 YMT, PREGS alone 20 mg/kg sc
  PP (%): 72.1 ± 12.4 ^1%

— US20210401776A1, “METHOD OF TREATING […] SYNDROMES USING FENFLURAMINE ENANTIOMERS” (ZOGENIX INTERNATIONAL LIMITED, priority 2018, published 2021)
